Data as given in the OPERA property sets (Mansouri et al. 2018).

| Compound | boiling point [°C] | log10 vapour pressure (mmHg) | melting point [°C] | ready biodegradability | log10 Koc (L/kg) | log10 Henry constant (atm·m³/mol) | log10 Koa | log10 biodegradation half-life (days) |
| --- | --- | --- | --- | --- | --- | --- | --- | --- |
| CCCCCCS | 151 | 0.624 | -81 |  |  |  |  |  |
| CC1(C)CC(O)CC(C)(C)N1 |  |  |  | not readily biodegradable |  |  |  |  |
| FC(F)(F)C(F)(F)C(F)(F)C(F)(F)C(F)(F)C(F)(F)C(F)(F)I | 138 |  |  |  |  |  |  |  |
| O=Cc1cccs1 | 197 |  |  |  |  |  |  |  |
| FC(F)(F)C(F)(F)C(F)(F)C(F)(F)I | 67 |  | -68 |  |  |  |  |  |
| COC(=O)[C@]1(C)CCC[C@@]2(C)[C@H]1CC=C1C=C(C(C)C)CC[C@@H]12 | 362 |  |  |  |  |  |  |  |
| CCc1c(C)cccc1C | 190 | -0.132 | -16.2 |  |  |  |  |  |
| CC(=O)OCC(=O)c1ccccc1 | 270 |  | 49 |  |  |  |  |  |
| O=c1ccocc1 | 212 |  | 32.5 |  |  |  |  |  |
| CC(C)c1ncc([N+](=O)[O-])n1C |  |  | 60 |  |  |  |  |  |
| CC(C)C1=CC(O)C(C)CC1 (stereo not drawn) | 220 |  |  |  |  |  |  |  |
| CNOC |  | 2.58 |  |  |  |  |  |  |
| O=c1n(CC2CO2)c(=O)n(CC2CO2)c(=O)n1CC1CO1 (stereo not drawn) |  |  |  | not readily biodegradable |  |  |  |  |
| OC1CCC(Cl)CC1 (stereo not drawn) |  |  | 82.5 |  |  |  |  |  |
| O=[N+]([O-])c1cc[n+]([O-])c2ccccc12 |  |  | 154 |  |  |  |  |  |
| CN(C)C(=O)C(c1ccccc1)c1ccccc1 |  | -7.52 | 135 |  | 2.32 |  |  |  |
| CC12CC3CC(C)(C1)CC(N)(C3)C2 |  |  | 258 |  |  |  |  |  |
| CC1=C(O)C(=O)C(C(C)C)CC1 (stereo not drawn) |  |  | 83 |  |  |  |  |  |
| OC(C(F)(F)F)C(F)(F)F | 59 | 2.2 | -4 | not readily biodegradable |  | -4.37 |  |  |
| CC(=O)c1cccc(Cl)c1 | 244 |  |  |  |  |  |  |  |

| Compound | boiling point [°C] | log10 vapour pressure (mmHg) | melting point [°C] | ready biodegradability | log10 Koc (L/kg) | log10 Henry constant (atm·m³/mol) | log10 Koa | log10 biodegradation half-life (days) |
| --- | --- | --- | --- | --- | --- | --- | --- | --- |
| O=C(O)c1ccc(C(=O)O)s1 |  |  | 359 |  |  |  |  |  |
| Cc1ccc2cccc(C)c2c1 | 263 |  | -13.9 |  |  |  |  |  |
| CCn1c2ccccc2c2cc(N)ccc21 |  |  | 99 |  |  |  |  |  |
| CCCSCC | 119 | 1.27 | -117 |  |  |  |  |  |
| C=CC(CC)CCC (stereo not drawn) | 110 |  |  |  |  |  |  |  |
| CCC1(c2ccccc2)C(=O)NCNC1=O |  |  | 282 |  |  |  |  |  |
| CCc1cc(C(C)(C)C)c(O)c(C(C)(C)C)c1 | 272 |  | 44 | not readily biodegradable |  |  |  |  |
| COc1ccc(C(C)(C)C)cc1 | 238 |  |  |  |  |  |  |  |
| N#CCCNCCC#N |  |  |  | not readily biodegradable |  |  |  |  |
| NC(=O)c1ccccc1Br |  |  | 160 |  |  |  |  |  |
| c1ccc2sc(SN3CCOCC3)nc2c1 |  | -5.48 | 85 | not readily biodegradable |  |  |  |  |
| CC(=O)c1cccs1 | 214 |  | 10.5 |  |  |  |  |  |
| CCCCOC(C)=O | 126 | 1.06 |  | readily biodegradable |  | -3.55 | 3.65 |  |
| CC(O)CCCCO (stereo not drawn) | 237 |  |  |  |  |  |  |  |
| Cc1cccc2c1ccc1ccccc12 |  | -4.82 | 123 |  |  | -4.31 |  | 1.36 |
| CCN1C(=O)c2ccccc2C1=O | 286 |  | 79 |  |  |  |  |  |
| Oc1ccccc1C=Nc1ccccc1 |  |  | 49.5 |  |  |  |  |  |
| BrCCCBr | 167 | 0.134 | -34.2 | not readily biodegradable |  | -3.05 |  |  |
| CCN(CC)C(=O)Cl | 186 |  | -32 |  |  |  |  |  |
| CNCCS(=O)(=O)O |  |  | 242 | readily biodegradable |  |  |  |  |

| Compound | boiling point [°C] | log10 vapour pressure (mmHg) | melting point [°C] | ready biodegradability | log10 Koc (L/kg) | log10 Henry constant (atm·m³/mol) | log10 Koa | log10 biodegradation half-life (days) |
| --- | --- | --- | --- | --- | --- | --- | --- | --- |
| O=C(O)Cc1ccc2ccccc2c1 |  |  | 142 |  |  |  |  |  |
| ClCCC(Cl)(Cl)Cl | 157 |  |  |  |  |  |  |  |
| Cc1nc(N(C)C)nc(OC(=O)N(C)C)c1C |  | -5.14 | 90.5 |  | 1.9 |  |  |  |
| COc1cc(C)ccc1O | 221 |  | 5.5 |  |  | -5.88 |  |  |
| C=C(C)CC(C)C | 81.6 | 1.98 | -124 |  |  |  |  |  |
| Nc1ccc(Cl)cc1C(=O)O |  |  |  | not readily biodegradable |  |  |  |  |
| CCCC(=O)C1=C(O)C(C)(C)C(O)=C(Cc2c(OC)cc(O)c(C(=O)CCC)c2O)C1=O |  |  | 150 |  |  |  |  |  |
| CC/C=C\CC=O | 121 |  |  |  |  |  |  |  |
| NS(=O)(=O)c1ccc(SCCCO)c([N+](=O)[O-])c1 |  |  | 163 |  |  |  |  |  |
| CF | -78.4 | 3.46 | -142 |  |  |  |  |  |
| O=C1CC=CCC1 | 170 |  |  |  |  |  |  |  |
| Clc1cccc(-c2c(Cl)ccc(Cl)c2Cl)c1Cl |  |  |  |  |  |  | 8.8 |  |
| O=S(=O)(Cl)c1cccs1 |  |  | 28 |  |  |  |  |  |
| C[Si](Cl)(Cl)c1ccccc1 | 206 | -0.312 |  |  |  |  |  |  |
| C#CCO | 114 | 1.19 | -51.8 | readily biodegradable |  |  |  |  |
| CC1=C(C)C(=O)C(C)=C(C)C1=O |  |  | 112 |  |  |  |  |  |
| O=C1NC(=O)c2ccccc21 |  |  | 238 | readily biodegradable |  |  |  |  |
| C#C[C@]1(O)CC[C@H]2[C@@H]3[C@H](C)CC4=C(CCC(=O)C4)[C@H]3CC[C@@]21C |  |  | 167 |  |  |  |  |  |
| CCOc1ccc(C=O)cc1 | 249 |  | 13.5 |  |  |  |  |  |
